# Reference: publication PMC7427733, “Novel xylose transporter Cs4130 expands the sugar uptake repertoire in recombinant Saccharomyces cerevisiae strains at high xylose concentrations” (Biotechnology for Biofuels, 2020)
# How the values were obtained:
# [1] = biological target: T1, Gxf1 (Sungouiella intermedia, UniProt Q2MDH1); experiment: growth complementation (spot assay) and sugar consumption (HPLC) in transporter-null yeast; assay type: cell-based; details: S. cerevisiae EBY_Xyl1, 30 °C, xylose 5-50 g/L; uptake inferred
# T1 sequence (Q2MDH1 1-547): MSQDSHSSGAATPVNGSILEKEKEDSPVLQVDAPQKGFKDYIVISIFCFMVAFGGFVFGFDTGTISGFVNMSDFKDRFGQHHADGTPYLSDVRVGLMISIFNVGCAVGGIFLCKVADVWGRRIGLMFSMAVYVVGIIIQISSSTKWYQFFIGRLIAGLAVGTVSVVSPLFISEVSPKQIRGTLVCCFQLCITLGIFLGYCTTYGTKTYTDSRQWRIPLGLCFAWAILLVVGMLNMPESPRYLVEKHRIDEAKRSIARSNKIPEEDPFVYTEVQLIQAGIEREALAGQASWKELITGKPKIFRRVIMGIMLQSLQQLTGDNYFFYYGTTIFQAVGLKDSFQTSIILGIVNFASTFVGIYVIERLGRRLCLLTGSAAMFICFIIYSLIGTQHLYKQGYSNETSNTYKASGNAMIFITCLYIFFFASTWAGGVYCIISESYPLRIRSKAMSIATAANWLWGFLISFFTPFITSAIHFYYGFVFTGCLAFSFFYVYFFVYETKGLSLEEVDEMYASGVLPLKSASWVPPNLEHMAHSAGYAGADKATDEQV
# [2] = biological target: T1, Gxf1; experiment: as above; assay type: cell-based; details: S. cerevisiae EBY_Xyl1, 30 °C, 20 g/L glucose spot assay; 10 g/L glucose with 10 g/L xylose in fermentation; uptake inferred
Structure (SMILES),growth complementation (spot assay) and sugar consumption (HPLC) in transporter- [1],growth complementation (spot assay) and sugar consumption (HPLC) in transporter- [2]
OC1OC[C@@H](O)[C@H](O)[C@H]1O (some centres unmarked) [xylose],The facilitator Gxf1 restored growth in all xylose concentrations evaluated,
OC[C@H]1OC(O)[C@H](O)[C@@H](O)[C@@H]1O (some centres unmarked) [glucose],,Cs3894 and Gxf1 were able to support better and similar patterns of growth on glucose
